pEC50: −log10 of the molar value.
Assays:
[1] = Clearance in CD1 mouse at 0.1 to 10 mg/kg, po; format: ADME, organism-based; parameters: dose 0.1-10 mg/kg, route oral; settings: in vivo
[2] = tested on: Mus musculus; assay: Volume of distribution in central compartment in CD1 mouse at 0.1 to 10 mg/kg, po; format: ADME, organism-based; parameters: dose 0.1-10 mg/kg, route oral; settings: in vivo
[3] = tested on: Mus musculus; assay: Induction of IFNalpha production in CD1 mouse assessed as maximum rate of interferon alpha synthesis at 0.1 to 10 mg/kg, po; format: functional; settings: dose mg/kg 0.1-10
[4] = tested on: Mus musculus; assay: Induction of IFNalpha production in CD1 mouse assessed as elimination rate constant for interferon alpha at 0.1 to 10 mg/kg, po; format: functional; settings: dose mg/kg 0.1-10
[5] = tested on: Mus musculus; assay: Induction of IFNalpha production in CD1 mouse assessed as concentration of compound required for half-maximal synthesis of INF-alpha at 0.1 to 10 mg/kg, po; format: functional; settings: dose mg/kg 0.1-10
[6] = tested on: Hepatitis C virus; assay: Antiviral activity against HCV infected in human Huh7 cells with persistent PFK1389-Luc-Ubi-Neo-NS3-3'/ET replicon after 48 hrs by luminescence based assay; format: functional, organism-based, Hepacivirus hominis; settings: Huh-7, 48 h
[7] = tested on: Mus musculus; assay: Intercompartmental clearance in CD1 mouse at 0.1 to 10 mg/kg, po; format: ADME, organism-based; parameters: dose 0.1-10 mg/kg, route oral; settings: in vivo
[8] = Oral bioavailability in rat at 3 mg/kg; format: ADME, organism-based; settings: in vivo
[9] = tested on: Mus musculus; assay: Absorption rate constant for depot compartment in CD1 mouse at 0.1 to 10 mg/kg, po; format: ADME, organism-based; parameters: dose 0.1-10 mg/kg, route oral; settings: in vivo
[10] = tested on: Mus musculus; assay: Apparent volume of distribution in CD1 mouse at 0.1 to 10 mg/kg, po; format: ADME, organism-based; parameters: dose 0.1-10 mg/kg, route oral; settings: in vivo

Compound: COCCOc1nc(N)c2[nH]c(=O)n(Cc3ccccc3)c2n1
- CL/F [1]: 57.5 mL/min/kg
- Vd [2]: 4.31 L/kg
- Smax [3]: 294 IU/ml/hr
- Activity [4]: 0.958 h⁻¹
- SC50 [5]: 135 ng/mL
- pEC50 [6]: 7.52
- CL [7]: 46.3 mL/min/kg
- bioavailability [8]: 40%
- Ka [9]: 35 h⁻¹
- Vz [10]: 40 L/kg
